Data as given in patent US10125148B2, “Pyrazolopyrimidine macrocycles as inhibitors of human immunodeficiency virus replication” (priority 2014, dated 2018).
pEC50: −log10 of the molar value. Where two headings read alike, the source gives them in different places.

Experiments:
[1] = rcm bond
NL-RLuc virus = experiment: Inhibition of HIV replication (NL-RLuc luciferase reporter virus in MT-2 cells); format: cell-based; settings: Human immunodeficiency virus 1, MT2, 120 h
[2] = from C=CCOC1(C)CCN(c2c([C@H](OC(C)(C)C)C(=O)OC)c(C)nc3cc(-c4cccc(-c5cc(CC)ccc5O[C@@H](C)CC=C)c4)nn23)CC1; rcm bond; 20-membered ring; Hoveyda-Grubbs II (name truncated)/CuI; DCE; 1.09 mM; 3.0 h

SMILES: CCOC(=O)[C@@H](OC(C)(C)C)c1c(C)nc2cc3nn2c1N1CCC(C)(CC1)OC/C=C/[C@H](C)Oc1ccc(F)cc1-c1cccc-3c1
- ring closure, isolated yield ([1]; from C=CCOC1(C)CCN(c2c([C@H](OC(C)(C)C)C(=O)OCC)c(C)nc3cc(-c4cccc(-c5cc(F)ccc5O[C@@H](C)C=C)c4)nn23)CC1, 19-membered ring, Grubbs II (0.1 eq)/CuI, DCE, 1.36 mM, 2.0 h): 67.3%

SMILES: CCOC(=O)[C@@H](OC(C)(C)C)c1c(C)nc2cc3nn2c1N1CCC(C)(CC1)OC/C=C/[C@H](C)Oc1cc(C)cc(F)c1-c1cccc-3c1
- ring closure, isolated yield ([1]; from C=CCOC1(C)CCN(c2c([C@H](OC(C)(C)C)C(=O)OCC)c(C)nc3cc(-c4cccc(-c5c(F)cc(C)cc5O[C@@H](C)C=C)c4)nn23)CC1, 19-membered ring, Grubbs II (0.1 eq)/CuI, DCE, 1.09 mM, 2.0 h): 72%

SMILES: CCOC(=O)[C@@H](OC(C)(C)C)c1c(C)nc2cc3nn2c1N1CCC(C)(CC1)OCC=CC[C@H](C)Oc1ccc(C(=O)OC)cc1-c1cccc-3c1
- ring closure, isolated yield ([1]; from C=CCOC1(C)CCN(c2c([C@H](OC(C)(C)C)C(=O)OCC)c(C)nc3cc(-c4cccc(-c5cc(C(=O)OC)ccc5O[C@@H](C)CC=C)c4)nn23)CC1, 20-membered ring, Hoveyda-Grubbs II (0.1 eq)/CuI, DCE, 1.52 mM, 80.0 °C, 3.0 h): 83%

SMILES: Cc1nc2cc3nn2c(c1[C@H](OC(C)(C)C)C(=O)O)N1CCC(C)(CC1)OCCCC[C@H](C)Oc1cc(F)cc(F)c1-c1cccc-3c1 [Example 3, (2S)-2-(tert-Butoxy)-2-[(22S)-16,18-difluoro-4,22,28-trimethyl-21,27-dioxa-1,5,7,8-tetraazahexacyclo[26.2.2.1^6,9.1^10,14.0^2,7.0^15,20]tetratriaconta-2,4,6(34),8,10(33),11,13,15(20),16,18-decaen-3-yl]acetic acid]
- pEC50 (NL-RLuc virus): 7.59

SMILES: COC(=O)[C@@H](OC(C)(C)C)c1c(C)nc2cc3nn2c1N1CCC(C)(CC1)OCC=CC[C@H](C)Oc1cc(F)cc(F)c1-c1cccc-3c1
- ring closure, isolated yield ([1]; from C=CCOC1(C)CCN(c2c([C@H](OC(C)(C)C)C(=O)OC)c(C)nc3cc(-c4cccc(-c5c(F)cc(F)cc5O[C@@H](C)CC=C)c4)nn23)CC1, 20-membered ring, Hoveyda-Grubbs II (2 x 0.05 eq), toluene, 1.26 mM, 80.0 °C, 3.0 h): 48%

SMILES: Cc1nc2cc3nn2c(c1[C@H](OC(C)(C)C)C(=O)O)N1CCC(C)(CC1)OC/C=C/[C@H](C)Oc1cc(F)ccc1-c1cccc-3c1 [Example 9, (2S)-2-(tert-Butoxy)-2-[(23E)-18-fluoro-4,22,27-trimethyl-21,26-dioxa-1,5,7,8-tetraazahexacyclo[25.2.2.1^6,9.1^10,14.0^2,7.0^15,20]tritriaconta-2,4,6(33),8,10(32),11,13,15(20),16,18,23-undecaen-3-yl]acetic acid]
- pEC50 (NL-RLuc virus): 8.22

SMILES: CCc1ccc2c(c1)-c1cccc(c1)-c1cc3nc(C)c([C@H](OC(C)(C)C)C(=O)OC)c(n3n1)N1CCC(C)(CC1)OCC=CC[C@H](C)O2
- ring closure, crude yield [2]: 92%

SMILES: Cc1nc2cc3nn2c(c1[C@H](OC(C)(C)C)C(=O)O)N1CCC(C)(CC1)OCCCC[C@H](C)Oc1cc(F)ccc1-c1cc(F)cc-3c1 [Example 27, (2S)-2-(tert-Butoxy)-2-[(22S)-12,18-difluoro-4,22,28-trimethyl-21,27-dioxa-1,5,7,8-tetraazahexacyclo[26.2.2.1^6,9.1^10,14.0^2,7.0^15,20]tetratriaconta-2,4,6(34),8,10(33),11,13,15(20),16,18-decaen-3-yl]acetic acid]
- pEC50 (NL-RLuc virus): 7.35

SMILES: Cc1cc(F)c2c(c1)O[C@@H](C)CCCOC1(C)CCN(CC1)c1c([C@H](OC(C)(C)C)C(=O)O)c(C)nc3cc(nn13)-c1cccc-2c1 [Example 18, (2S)-2-(tert-Butoxy)-2-[(22S)-16-fluoro-4,18,22,27-tetramethyl-21,26-dioxa-1,5,7,8-tetraazahexacyclo[25.2.2.1^6,9.1^10,14.0^2,7.0^15,20]tritriaconta-2,4,6(33),8,10(32),11,13,15(20),16,18-decaen-3-yl]acetic acid]
- pEC50 (NL-RLuc virus): 8.15

SMILES: Cc1nc2cc3nn2c(c1[C@H](OC(C)(C)C)C(=O)O)N1CCC(C)(CC1)OC/C=C/[C@H](C)Oc1ccc(F)cc1-c1cccc-3c1 [Example 13, (2S)-2-(tert-Butoxy)-2-[(22S,23E)-17-fluoro-4,22,27-trimethyl-21,26-dioxa-1,5,7,8-tetraazahexacyclo[25.2.2.1^6,9.1^10,14.0^2,7.0^15,20]tritriaconta-2,4,6(33),8,10(32),11,13,15(20),16,18,23-undecaen-3-yl]acetic acid]
- pEC50 (NL-RLuc virus): 8.40

SMILES: CCOC(=O)[C@@H](OC(C)(C)C)c1c(C)nc2cc3nn2c1N1CCC(C)(CC1)OC/C=C/C(C)Oc1cc(F)ccc1-c1cccc-3c1 (some centres unmarked)
- ring closure, isolated yield ([1]; from C=CCOC1(C)CCN(c2c([C@H](OC(C)(C)C)C(=O)OCC)c(C)nc3cc(-c4cccc(-c5ccc(F)cc5O[C@@H](C)C=C)c4)nn23)CC1, 19-membered ring, Grubbs II (0.1 eq)/CuI, DCE, 1.27 mM, 2.0 h): 96%

SMILES: CCc1ccc2c(c1)-c1cccc(c1)-c1cc3nc(C)c([C@H](OC(C)(C)C)C(=O)O)c(n3n1)N1CCC(C)(CC1)OCCCC[C@H](C)O2 [Example 7, (2S)-2-(tert-Butoxy)-2-[(22S)-17-ethyl-4,22,28-trimethyl-21,27-dioxa-1,5,7,8-tetraazahexacyclo[26.2.2.1^6,9.1^10,14.0^2,7.0^15,20]tetratriaconta-2,4,6(34),8,10(33),11,13,15(20),16,18-decaen-3-yl]acetic acid]
- pEC50 (NL-RLuc virus): 7.54

SMILES: CCOC(=O)[C@@H](OC(C)(C)C)c1c(C)nc2cc3nn2c1N1CCC(C)(CC1)OC/C=C/[C@H](C)Oc1ccc(C)c(F)c1-c1cccc-3c1
- ring closure, isolated yield ([1]; from C=CCOC1(C)CCN(c2c([C@H](OC(C)(C)C)C(=O)OCC)c(C)nc3cc(-c4cccc(-c5c(O[C@@H](C)C=C)ccc(C)c5F)c4)nn23)CC1, 19-membered ring, Grubbs II (0.1 eq)/CuI, DCE, 1.33 mM, 2.0 h): 94%

SMILES: CCOC(=O)[C@@H](OC(C)(C)C)c1c(C)nc2cc3nn2c1N1CCC(C)(CC1)OC/C=C/[C@H](C)Oc1cc(C)ccc1-c1cccc-3c1
- ring closure, isolated yield ([1]; from C=CCOC1(C)CCN(c2c([C@H](OC(C)(C)C)C(=O)OCC)c(C)nc3cc(-c4cccc(-c5ccc(C)cc5O[C@@H](C)C=C)c4)nn23)CC1, 19-membered ring, Grubbs II (0.1 eq)/CuI, DCE, 1.32 mM, 2.0 h): 69.5%

SMILES: Cc1ccc2c(c1)-c1cccc(c1)-c1cc3nc(C)c([C@H](OC(C)(C)C)C(=O)O)c(n3n1)N1CCC(C)(CC1)O/C=C\CC[C@H](C)O2 [Example 19, (2S)-2-(tert-Butoxy)-2-[(22S,25Z)-4,17,22,28-tetramethyl-21,27-dioxa-1,5,7,8-tetraazahexacyclo[26.2.2.1^6,9.1^10,14.0^2,7.0^15,20]tetratriaconta-2,4,6(34),8,10(33),11,13,15(20),16,18,25-undecaen-3-yl]acetic acid]
- pEC50 (NL-RLuc virus): 7.48

SMILES: COC(=O)[C@@H](OC(C)(C)C)c1c(C)nc2cc3nn2c1N1CCC(C)(CC1)OC/C=C/C[C@H](C)Oc1cc(C)cc(F)c1-c1cccc-3c1
- ring closure, isolated yield ([1]; from C=CCOC1(C)CCN(c2c([C@H](OC(C)(C)C)C(=O)OC)c(C)nc3cc(-c4cccc(-c5c(F)cc(C)cc5O[C@@H](C)CC=C)c4)nn23)CC1, 20-membered ring, Ru-SIMes catalyst (name truncated), 3.0 h): 78%

SMILES: Cc1ccc2c(c1)-c1cccc(c1)-c1cc3nc(C)c([C@H](OC(C)(C)C)C(=O)O)c(n3n1)N1CCC(C)(CCCCC[C@H](C)O2)CC1 [Example 21, (2S)-2-(tert-Butoxy)-2-[(22S)-4,17,22,28-tetramethyl-21-oxa-1,5,7,8-tetraazahexacyclo[26.2.2.1^6,9.1^10,14.0^2,7.0^15,20]tetratriaconta-2,4,6(34),8,10(33),11,13,15(20),16,18-decaen-3-yl]acetic acid]
- pEC50 (NL-RLuc virus): 6.82
